Consider five compounds from patent publication US5110800A, “Derivatives of erythromycylamine” (Eli Lilly and Company, priority 1989, dated 1992).

Converted amounts (≈) assume the structure as drawn. Read-outs that look alike come from different tables or passages of the source. Where only a bound is given, the exact number is not on record here.

Assay [1] concerns Streptococcus pneumoniae Park I. As to the kind of experiment: MIC, standard agar-dilution assay. In kind it is cell-based. To be noted: for MIC: Streptococcus pneumoniae, read-out: minimal inhibitory concentration (MIC).
For assay [2], the system named is Streptococcus sp. group D 2041. As to the kind of experiment: MIC, standard agar-dilution assay. In kind it is cell-based. To be noted: for MIC: Streptococcus, read-out: minimal inhibitory concentration (MIC).
Assay [3] concerns Streptococcus sp. group D X66. As to the kind of experiment: MIC, standard agar-dilution assay. In kind it is cell-based. The settings on record: for MIC: Streptococcus, read-out: minimal inhibitory concentration (MIC).
Assay [4] relates to Streptococcus pyogenes C203. As to the kind of experiment: MIC, standard agar-dilution assay. The settings on record: for MIC: Streptococcus pyogenes, C203, read-out: minimal inhibitory concentration (MIC). In kind it is cell-based.
Assay [5] concerns Staphylococcus aureus X400. As to the kind of experiment: MIC, standard agar-dilution assay. In kind it is cell-based. The settings on record: methicillin-resistant strain, inducibly erythromycin-resistant; for MIC: Staphylococcus aureus, X400, Table V, read-out: minimal inhibitory concentration (MIC). From the text: (§1) In addition to excellent in vitro activity against erythromycin-sensitive bacteria, several members of this new series have shown in vitro activity against erythromycin-resistant strains. These include strains which are inducibly-resistant to erythromycin (S. aureus V41 and X400 and S. epidermidis EPI1) and even strains which are constitutively-resistant (S. epidermidis 270).

Assay [6] concerns Staphylococcus aureus V41. As to the kind of experiment: MIC, standard agar-dilution assay. The class given is cell-based. The settings on record: penicillin-resistant strain, inducibly erythromycin-resistant; for MIC: Staphylococcus aureus, V41, Table V, read-out: minimal inhibitory concentration (MIC).
From the text: as §1

Assay [7] relates to Staphylococcus epidermidis EPI1. As to the kind of experiment: MIC, standard agar-dilution assay. In kind it is cell-based. The settings on record: EPI1, read-out: minimal inhibitory concentration (MIC).
From the text: as §1

Assay [8] concerns Staphylococcus aureus X1.1. As to the kind of experiment: MIC, standard agar-dilution assay. In kind it is cell-based. To be noted: for MIC: Staphylococcus aureus, X1.1, read-out: minimal inhibitory concentration (MIC).
Assay [9] concerns Staphylococcus epidermidis 222. As to the kind of experiment: MIC, standard agar-dilution assay. In kind it is cell-based. To be noted: for MIC: Staphylococcus epidermidis, 222, read-out: minimal inhibitory concentration (MIC).
The test system of assay [10] is Staphylococcus aureus S13E. As to the kind of experiment: MIC, standard agar-dilution assay. In kind it is cell-based.
A further assay has as its system Escherichia coli EC14. As to the kind of experiment: MIC, standard agar-dilution assay. The class given is cell-based. To be noted: agar dilution; for MIC: Escherichia coli, EC14, Table V, read-out: minimal inhibitory concentration (MIC). (Agar dilution tests growth on a series of plates holding different concentrations.)
Assay [11] relates to Haemophilus influenzae C.L. As to the kind of experiment: MIC, standard agar-dilution assay. The class given is cell-based. To be noted: for MIC: Haemophilus influenzae, read-out: minimal inhibitory concentration (MIC).
Assay [12] concerns Klebsiella pneumoniae X68. As to the kind of experiment: MIC, standard agar-dilution assay. In kind it is cell-based. To be noted: for MIC: Klebsiella pneumoniae.
In assay [13] the test system is Haemophilus influenzae 76. As to the kind of experiment: MIC, standard agar-dilution assay. In kind it is cell-based. To be noted: ampicillin-resistant strain.
In another assay the test system is Streptococcus pneumoniae. As to the kind of experiment: Oral ED50 against experimental infection in mice. The settings on record: two doses, protects 50% of animals. The class given is in vivo. On the procedure:
(§2) The new derivatives of this invention have also shown in vivo antimicrobial activity against experimental bacterial infections. When two doses of test compound were administered to mice in experimental infections, the activity observed was measured as an ED50 value [effective dose in mg/kg to protect 50% of the test animals: see Warren Wick, et al., J. Bacteriol. 81, 233-235 (1961)].

The next assay concerns Staphylococcus aureus. As to the kind of experiment: Oral ED50 against experimental infection in mice. To be noted: two doses, protects 50% of animals. In kind it is in vivo. As for the experimental part: as §2
The subject of a further assay is Streptococcus pyogenes. As to the kind of experiment: Oral ED50 against experimental infection in mice. The class given is in vivo. The settings on record: two doses, protects 50% of animals. On the procedure: as §2
For assay [14], the system named is Staphylococcus epidermidis 270. As to the kind of experiment: MIC, standard agar-dilution assay. The class given is cell-based. The settings on record: Table IV; constitutively erythromycin-resistant.
From the text: as §1

Where [15] appears, read: X68, Table V, agar dilution, read-out: minimal inhibitory concentration (MIC).

Regarding `CC[C@H]1OC(=O)[C@H](C)[C@@H](O[C@H]2C[C@@](C)(OC)[C@@H](O)[C@H](C)O2)[C@H](C)[C@@H](O[C@@H]2O[C@H](C)C[C@H](N(C)C)[C@H]2O)[C@](C)(O)C[C@@H](C)[C@H]2[C@H](C)[C@@H](OCN2C2CCCC2)[C@]1(C)O` [Compound 60, 9-Deoxo-9-(cyclopentylamino)-9,11(N,O)-cyclic Methylene Adduct of Erythromycin], the MIC in assay [1] was 0.06 µg/mL (≈ 0.0736 µM); in assay [2], 8 µg/mL (≈ 9.81 µM); in assay [3], 0.5 µg/mL (≈ 0.613 µM); in assay [4], 0.125 µg/mL (≈ 0.153 µM); in assay [5], above 128 µg/mL; in assay [6] it was above 128 µg/mL. Also, the MIC is above 128 µg/mL in [7], 1 µg/mL (≈ 1.23 µM) in assay [8] and 1 µg/mL (≈ 1.23 µM) in assay [9].
For `CC[C@H]1OC(=O)[C@H](C)[C@@H](O[C@H]2C[C@@](C)(OC)[C@@H](O)[C@H](C)O2)[C@H](C)[C@@H](O[C@@H]2O[C@H](C)C[C@H](N(C)C)[C@H]2O)[C@](C)(O)C[C@@H](C)[C@H]2[C@H](C)[C@@H](OCN2C(C)CCCN(C)C)[C@]1(C)O` (some centres unmarked) [Compound 63, 9-Deoxo-9-[(5-dimethylamino-2-pentyl)amino]-9,11-(N,O)-cyclic-Methylene Adduct of Erythromycin], the MIC in assay [1] turned out to be 0.5 µg/mL (≈ 0.581 µM); in assay [10] (Staphylococcus aureus, S13E, read-out: minimal inhibitory concentration (MIC)) it was 8 µg/mL (≈ 9.3 µM); in assay [2] (Table V, agar dilution), 32 µg/mL (≈ 37.2 µM); in the assay with Escherichia coli EC14 it was 32 µg/mL (≈ 37.2 µM); in [3], 2 µg/mL (≈ 2.33 µM); in [4] it was 0.5 µg/mL (≈ 0.581 µM). For the same compound, the MIC in assay [11] (Table V, ampicillin-sensitive strain) is 8 µg/mL (≈ 9.3 µM); in assay [5], above 128 µg/mL; in assay [6], above 128 µg/mL; in assay [7] it was above 128 µg/mL; in assay [8], 8 µg/mL (≈ 9.3 µM); in [9] it was 8 µg/mL (≈ 9.3 µM). Also, the MIC in [12] (X68, read-out: minimal inhibitory concentration (MIC)) stood at 128 µg/mL (≈ 149 µM); in [13] (Haemophilus influenzae, 76, Table V, read-out: minimal inhibitory concentration (MIC)), 8 µg/mL (≈ 9.3 µM).
For `CC[C@H]1OC(=O)[C@H](C)[C@@H](O[C@H]2C[C@@](C)(OC)[C@@H](O)[C@H](C)O2)[C@H](C)[C@@H](O[C@@H]2O[C@H](C)C[C@H](N(C)C)[C@H]2O)[C@](C)(O)C[C@@H](C)[C@H](N(C)C2CCCCC2)[C@H](C)[C@@H](O)[C@]1(C)O` [Compound 71, 9-Deoxo-9-[(N-cyclohexyl-N-methyl)amino]erythromycin], the MIC is 0.125 µg/mL (≈ 0.15 µM) in [1]; 128 µg/mL (≈ 154 µM) in [2]; above 128 µg/mL in the assay with Escherichia coli EC14; 8 µg/mL (≈ 9.63 µM) in assay [3]; 1 µg/mL (≈ 1.2 µM) in assay [4]; above 128 µg/mL in assay [5]. Besides, the MIC was above 128 µg/mL in assay [6]; above 128 µg/mL in assay [7]; 16 µg/mL (≈ 19.3 µM) in [8]; 8 µg/mL (≈ 9.63 µM) in assay [9]; above 128 µg/mL in assay [12] (setting [15]).
For `CC[C@H]1OC(=O)[C@H](C)[C@@H](O[C@H]2C[C@@](C)(OC)[C@@H](O)[C@H](C)O2)[C@H](C)[C@@H](O[C@@H]2O[C@H](C)C[C@H](N(C)C)[C@H]2O)[C@](C)(O)C[C@@H](C)[C@H](N2CCCCC2)[C@H](C)[C@@H](O)[C@]1(C)O` [Compound 72, 9-Deoxo-9-(1-piperidinyl)erythromycin], the MIC is 1 µg/mL (≈ 1.25 µM) in assay [1]; 128 µg/mL (≈ 159 µM) in assay [2]; above 128 µg/mL in the assay on Escherichia coli EC14; 1 µg/mL (≈ 1.25 µM) in [4]; 2 µg/mL (≈ 2.49 µM) in assay [11]; above 128 µg/mL in assay [5]. Moreover, the MIC was above 128 µg/mL in assay [6]; above 128 µg/mL in assay [7]; 16 µg/mL (≈ 19.9 µM) in assay [8]; 8 µg/mL (≈ 9.96 µM) in assay [9]; above 128 µg/mL in [12] (setting [15]).
Regarding “Endo- and Exo-9-Deoxo-9-[(bicyclo[2.2.1]hept-2-en-5-yl-methyl)amino]erythromycin [Compound 19]”, the “minimal inhibitory concentration (MIC)” value in assay [1] (Table IV, agar dilution) turned out to be 0.015 µg/mL; in [10] (Table IV, agar dilution), 2 µg/mL; in assay [2] (Table IV, agar dilution), 8 µg/mL; with Escherichia coli EC14 (Table IV), 64 µg/mL; in assay [3] (Table IV, agar dilution) it was 1 µg/mL; in assay [4] (Table IV, agar dilution), 0.25 µg/mL. The “minimal inhibitory concentration (MIC)” value was 8 µg/mL in assay [11] (Table IV, ampicillin-sensitive strain); “-- (-- = >128)” in assay [5] (Table IV); “-- (-- = >128)” in [14]; “-- (-- = >128)” in assay [6] (Table IV); 2 µg/mL in [8] (Table IV, agar dilution); 1 µg/mL in assay [9] (Table IV, agar dilution). The “minimal inhibitory concentration (MIC)” value is “-- (-- = >128)” in [12] (Table IV, agar dilution) and 8 µg/mL in assay [13] (Table IV). The entries for the “Oral ED50” value in the assay with Streptococcus pneumoniae, in the assay on Staphylococcus aureus and in the assay with Streptococcus pyogenes were 25.0 mg/kg, above 50 mg/kg and 16.6 mg/kg, respectively.
